Patent US6399629B1, “Efflux pump inhibitors” (priority 1998, dated 2002)

Test system: Pseudomonas aeruginosa PAM1001
Test: checkerboard assay (broth microdilution): levofloxacin MIC in presence of efflux pump inhibitor
Assay type: cell-based
Method in brief: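 Checkerboard broth microdilution in Mueller Hinton Broth against P. aeruginosa PAM1001 (5×10^5 CFU/mL, early-log inoculum), levofloxacin and efflux pump inhibitor (up to 40 μg/mL) diluted along crossing axes. Plates incubated 20 h at 35° C; growth read at 650 nm and visually. Potentiation scored as reduced levofloxacin MIC.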

Row | Structure (SMILES) | Levofloxacin MIC Against P. aerugiuosa PAM1001 in Presence of Efflux Pump Inhibitor (EPI), Minimum Inhibitory Concentration (EPI Conc. 0 μg/mL) | Levofloxacin MIC Against P. aerugiuosa PAM1001 in Presence of Efflux Pump Inhibitor (EPI), Minimum Inhibitory Concentration (EPI Conc. 0.625 μg/mL) | Levofloxacin MIC Against P. aerugiuosa PAM1001 in Presence of Efflux Pump Inhibitor (EPI), Minimum Inhibitory Concentration (EPI Conc. 1.25 μg/mL) | Levofloxacin MIC Against P. aerugiuosa PAM1001 in Presence of Efflux Pump Inhibitor (EPI), Minimum Inhibitory Concentration (EPI Conc. 2.5 μg/mL) | Levofloxacin MIC Against P. aerugiuosa PAM1001 in Presence of Efflux Pump Inhibitor (EPI), Minimum Inhibitory Concentration (EPI Conc. 5 μg/ mL) | Levofloxacin MIC Against P. aerugiuosa PAM1001 in Presence of Efflux Pump Inhibitor (EPI), Minimum Inhibitory Concentration (EPI Conc. 10 μg/mL) | Levofloxacin MIC Against P. aerugiuosa PAM1001 in Presence of Efflux Pump Inhibitor (EPI), Minimum Inhibitory Concentration (EPI Conc. 20 μg/mL) | Levofloxacin MIC Against P. aerugiuosa PAM1001 in Presence of Efflux Pump Inhibitor (EPI), Minimum Inhibitory Concentration (EPI Conc. 40 μg/mL) | MIC (Pseudomonas aeruginosa, PAM1001, read-out: MIC of levofloxacin against P. aeruginosa PAM1001)
1 | NCC(=O)N[C@H]1CN[C@H](c2nc3ccccc3n2CCc2ccccc2)C1 [Compound M75, (2S,4R)-4-(2-Aminoacetamido)-2-(1-(2-phenyl)ethyl-2-benzimidazolyl)pyrrolidine] | 4 µg/mL | 4 µg/mL | 4 µg/mL | 4 µg/mL | 4 µg/mL | 4 µg/mL | 1 µg/mL | 0.03 µg/mL | 
2 | N[C@H]1CN[C@H](C(=O)N[C@H](CCc2ccccc2)C(=O)Nc2cnc3ccccc3c2)C1 [Compound M7] | 4 µg/mL | 4 µg/mL | 4 µg/mL | 4 µg/mL | 4 µg/mL | 4 µg/mL | 4 µg/mL | 0.06 µg/mL | 
3 | C[C@@H](N)C(=O)N[C@@H]1CN[C@@H](C(=O)N(CCC(C)(C)C)CC(=O)Nc2cnc3ccccc3c2)C1 [Compound M47] | 4 µg/mL | 4 µg/mL | 4 µg/mL | 4 µg/mL | 4 µg/mL | 4 µg/mL | 2 µg/mL | 0.03 µg/mL | 
4 | NCC(=O)N[C@H]1CN[C@H](C(=O)N[C@H](CCc2ccccc2)CSc2cnc3ccccc3c2)C1 [Compound M53, (2S,4R)-4-(2-Aminoacetamideo)-N-[(1R)-3-phenyl-1-[(3-quinolythio)methyl]propyl]-2-pyrrolidinecarboxamide] | 4 µg/mL | 4 µg/mL | 4 µg/mL | 4 µg/mL | 4 µg/mL | 4 µg/mL | 0.06 µg/mL | 0.03 µg/mL | 
5 | NCC(=O)N[C@H]1CN[C@H](C(=O)NCc2nc3cc(Cc4ccccc4)ccc3[nH]2)C1 [Compound M79, (2S,4R)-4-(2-Aminoacetamido)-N-[(5-benzyl-2-benzimidazolyl)methyl]-2-pyrrolidinexarboxamide] | 4 µg/mL | 4 µg/mL | 4 µg/mL | 4 µg/mL | 4 µg/mL | 2 µg/mL | 1 µg/mL | 0.125 µg/mL | 
6 | CC(C)(C)c1ccc2oc(C(O)[C@@H](CCc3ccccc3)NC(=O)[C@H]3C[C@H](CN)CN3)nc2c1 (mixture of isomers) [Compound M68] | 4 µg/mL | 4 µg/mL | 4 µg/mL | 4 µg/mL | 4 µg/mL | 4 µg/mL | 0.5 µg/mL | 0.015 µg/mL | 
7 | Cc1ccc2ncc(C(=O)N[C@@H](CCc3ccccc3)CNC(=O)[C@H]3C[C@H](CN)CN3)cc2c1 [Compound M62, (2R,4R)-4-(Aminomethyl)-N-[(2S)-2-(6-methyl-3-quinolylcarboxamido)-4-phenylbutyl]-2-pyrrolidinecaroxamide] | 4 µg/mL | 4 µg/mL | 4 µg/mL | 4 µg/mL | 4 µg/mL | 2 µg/mL | 0.5 µg/mL | 0.015 µg/mL | 
8 | Cc1cc2nc(C(O)[C@@H](CCc3ccccc3)NC(=O)[C@H]3C[C@H](NC(=O)[C@@H](C)N)CN3)oc2cc1C (mixture of isomers) [Compound M66, (2R,4S)-4-[(2R)-2-Aminopropionamido]-N-[(1R)-1-[(RS)-(5,6-dimethyl-2-benzoxaaolyl)hydroxymethyl]-3-phenylpropyl]-2-pyrrolidinecarboxamide] | 4 µg/mL | 4 µg/mL | 4 µg/mL | 4 µg/mL | 4 µg/mL | 0.125 µg/mL | 0.015 µg/mL | 0.015 µg/mL | 
9 | NC[C@@H]1CN[C@@H](C(=O)N[C@H](CCc2ccccc2)C(=O)Nc2cnc3ccc(F)cc3c2)C1 [Compound M35, (2R,4R)-4-(Aminomethyl)-N-[(1R)-3-pheyl-1-(6-fluoro-3-quinolylcarbamoyl)propyl]-2-pyrrolidinecarboxamide] | 4 µg/mL | 4 µg/mL | 4 µg/mL | 4 µg/mL | 2 µg/mL | 0.5 µg/mL | 0.03 µg/mL | 0.03 µg/mL | 
10 | NC[C@@H]1CN[C@@H](C(=O)N[C@H](CCc2ccccc2)C(=O)Nc2cc(Cl)ccc2O)C1 [Compound M39, (2R,4R)-4-(Aminomethyl)-N-[(1R)-3-pheyl-1-(5-chloro-2-hydroxyphenylcarbamoyl)propyl]-2-pyrrolidinecarboxamide] | 4 µg/mL | 4 µg/mL | 2 µg/mL | 0.5 µg/mL | 0.25 µg/mL | 0.015 µg/mL | 0.015 µg/mL | 0.015 µg/mL | 
11 | C[C@H]1COc2c(N3CCN(C)CC3)c(F)cc3c(=O)c(C(=O)O)cn1c23 [levofloxacin, reference compound] |  |  |  |  |  |  |  |  | 4 µg/mL
12 | NCC(=O)N[C@@H]1CN[C@@H](C(=O)N[C@H](CCc2ccccc2)C(=O)NCCCc2ccccc2)C1 [Compound M2] | 4 µg/mL | 4 µg/mL | 4 µg/mL | 4 µg/mL | 2 µg/mL | 2 µg/mL | 0.25 µg/mL | 0.125 µg/mL | 
